# Patent US10123984B2, “Neprilysin inhibitors” (THERAVANCE BIOPHARMA R&D IP, LLC, priority 2011, dated 2018)
# Target: T1, NEP (Homo sapiens (Human), UniProt P08473)
# Experiment: Assay 1: in vitro enzyme inhibition assay at human NEP (fluorogenic peptide substrate)
# Type: biochemical
# Details: pKi values at human NEP, comparative examples, exact values
row,Ki [nM],Molecule
1,200,"O=C(O)CC(=O)N[C@H](Cc1ccc(-c2ccccc2)cc1)CC(O)C(=O)O (stereo partly drawn) [Comparative Compound C, (R)-5-Biphenyl-4-yl-4-(2-carboxyacetylamino)-2-hydroxypentanoic Acid]"
2,39.8,"O=C(O)CCC(=O)N[C@H](Cc1ccc(-c2ccccc2)cc1)CC(O)C(=O)O (stereo partly drawn) [Comparative Compound D, (R)-5-Biphenyl-4-yl-4-(3-carboxypropionylamino)-2-hydroxypentanoic Acid]"
3,50.1,"O=C(O)CCCC(=O)N[C@H](Cc1ccc(-c2ccccc2)cc1)CC(O)C(=O)O (stereo partly drawn) [Comparative Compound E, (R)-5-Biphenyl-4-yl-4-(4-carboxybutyrylamino)-2-hydroxypentanoic Acid]"
4,6.31,"O=C(O)CC(=O)N[C@H](Cc1ccc(-c2ccccc2)cc1)C[C@@H](CO)C(=O)O [Comparative Compound F, (2S,4S)-5-Biphenyl-4-yl-4-(2-carboxy-acetylamino)-2-hydroxymethylpentanoic Acid]"
5,1,"O=C(O)CCC(=O)N[C@H](Cc1ccc(-c2ccccc2)cc1)C[C@@H](CO)C(=O)O [Comparative Compound G, (2S,4S)-5-Biphenyl-4-yl-4-(3-carboxy-propionylamino)-2-hydroxymethylpentanoic Acid]"
6,2.51,"O=C(O)CCCC(=O)N[C@H](Cc1ccc(-c2ccccc2)cc1)C[C@@H](CO)C(=O)O [Comparative Compound H, (2S,4S)-5-Biphenyl-4-yl-4-(4-carboxy-butyrylamino)-2-hydroxymethylpentanoic Acid]"

row,Molecule,Ki [nM]
1,"O=C(O)CC(=O)N[C@H](Cc1ccc(-c2cccc(Cl)c2)cc1)C[C@@H](O)C(=O)O [Comparative Compound I, (2R,4R)-4-(2-Carboxy-acetylamino)-5-(3′-chloro-biphenyl-4-yl)-2-hydroxy-pentanoic Acid]",3.98
2,"O=C(O)CCC(=O)N[C@H](Cc1ccc(-c2cccc(Cl)c2)cc1)C[C@@H](O)C(=O)O [Comparative Compound J, (2R,4R)-4-(3-Carboxy-propionylamino)-5-(3′-chloro-biphenyl-4-yl)-2-hydroxy-pentanoic Acid]",0.316
3,"O=C(O)CCCC(=O)N[C@H](Cc1ccc(-c2cccc(Cl)c2)cc1)C[C@@H](O)C(=O)O [Comparative Compound K, (2R,4R)-4-(4-Carboxy-butyrylamino)-5-(3′-chloro-biphenyl-4-yl)-2-hydroxy-pentanoic Acid]",0.501
4,"O=C(O)C(=O)N[C@H](Cc1ccc(-c2ccccc2)cc1)CC(O)C(=O)O (stereo partly drawn) [Example 1, (R)-5-Biphenyl-4-yl-2-hydroxy-4-(oxalylamino)pentanoic Acid]",12.6
5,"O=C(O)C(=O)N[C@H](Cc1ccc(-c2cccc(Cl)c2)cc1)C[C@@H](O)C(=O)O [Example 2A, (2R,4R)-5-(3′-Chlorobiphenyl-4-yl)-2-hydroxy-4-(oxalylamino)pentanoic Acid]",0.2

# Same assay, conditions: pKi values at human NEP, reported as ranges
pKi,Molecule,Ki [nM]
,"CC(C)COC(=O)C(=O)N[C@H](Cc1ccc(-c2cc(Cl)ccc2Cl)cc1)C[C@@H](O)C(=O)O [Example 3D, (2R,4R)-5-(2′,5′-Dichlorobiphenyl-4-yl)-2-hydroxy-4-(isobutoxyoxalylamino)-pentanoic Acid]",≤ 1
,"O=C(O)C(=O)N[C@H](Cc1ccc(-c2ccccc2F)cc1)C[C@@H](CO)C(=O)O [Example 7B, (2S,4S)-5-(2′-Fluorobiphenyl-4-yl)-2-hydroxymethyl-4-(oxalylamino)pentanoic Acid]",≤ 1
,"O=C(O)C(=O)NN(Cc1ccc(-c2cc(Cl)ccc2F)cc1)C[C@@H](O)C(=O)O [Example 14A, (R)-3-[N-(5′-Chloro-T-fluorobiphenyl-4-ylmethyl)-N-oxalylhydrazino]-2-hydroxypropionic Acid]",≤ 1
,"CC(C)COC(=O)C(=O)NN(Cc1ccc(-c2cc(Cl)ccc2F)cc1)C[C@@H](O)C(=O)O [Example 14C, (R)-3-[N-(5′-Chloro-2′-fluorobiphenyl-4-ylmethyl)-N′-isobutoxyoxalylhydrazino]-2-hydroxypropionic Acid]",1.26 to 10
≥9,"(2R,4R)-5-(3,3′-Dichlorobiphenyl-4-yl)-2-hydroxy-4-(oxalylamino)pentanoic acid ethyl ester [Example 5-17]",
≥9,"(R)-3-N-(3,5′-Dichloro-2′-fluorobiphenyl-4-ylmethyl)-N′-oxalyl-hydrazinol-2-hydroxypropionic acid [Example 5-13]",

Molecule,pKi,Ki [nM]
"O=C(N[C@H](Cc1ccc(-c2cccc(Cl)c2)cc1)C[C@@H](O)C(=O)O)C(=O)OCCC(F)(F)F [Example 2N, (2R,4R)-5-(3′-Chlorobiphenyl-4-yl)-2-hydroxy-4-[(3,3,3-trifluoropropoxyoxalyl)-amino]pentanoic Acid]",≥9,

# Target: T1, NEP
# Experiment: not given
# Details: relative to 21a (succinic acid substituent); quoted from Ksander et al.; cited from earlier work
row,Molecule,decrease in activity [fold]
1,C[C@H](C[C@@H](Cc1ccc(-c2ccccc2)cc1)NC(=O)CCCC(=O)O)C(=O)O [Example 21e],18
2,C[C@H](C[C@@H](Cc1ccc(-c2ccccc2)cc1)NC(=O)CCCCC(=O)O)C(=O)O [Example 21f],65
3,C[C@H](CC(Cc1ccc(-c2ccccc2)cc1)NC(=O)CC(=O)O)C(=O)O (stereo partly drawn) [Example 21g],18
